The nature of data set [1]: Insulin oral delivery in rats, serum human insulin by ELISA and serum glucose. It counts as in vivo, Male Sprague-Dawley rats. The conditions noted are these: delivery agent compound dose 200 mg/kg, insulin dose 0.5 mg/kg, volume dose 1.0 ml/kg. On the procedure:
Oral dosing (PO) compositions of delivery agent compound and human zinc insulin (minimum 26 IU/mg available from Calbiochem—Novabiochem Corp, La Jolla, Calif.) were prepared in deionized water. […] The solution was vortexed, then heated (about 37° C.) and sonicated. The pH was adjusted to about 7 to 8.5 with NaOH or HCl.
About 1.25 mg insulin from an insulin stock solution (15 mg/ml made from 0.5409 g insulin and […] deionized water, adjusting with HCl and NaOH to pH 8.15 and to obtain a clear solution using […]) was added to the solution and mixed by inverting.
The typical dosing and sampling protocols were as follows. […] A dosing group of five animals was administered one of the dosing solutions. […] The syringe was filled with dosing solution by drawing the solution through the catheter, which was then wiped dry. The catheter was placed down the esophagus leaving 1 cm of tubing past the incisors. Solution was administered by pressing the syringe plunger.
Serum insulin levels were determined with an Insulin ELISA Test Kit (Kit # DSL-10-1600 from Diagnostic Systems Laboratories, Inc., Webster, Tex.), modifying the standard protocol in order to optimize the sensitivity and linear range of the standard curve for the volumes and concentrations of the samples used in the present protocol. […]
In general terms: ELISA stands for enzyme-linked immunosorbent assay.

This is an account of results in patent US7495030B2, “(5-(2-hydroxy-4-chlorobenzoyl) aminovaleric acid and salts thereof and compositions containing the same for delivering active agents” (Emisphere Technologies, Inc., priority 2000, dated 2009).

One may read the melting point as the temperature, or range, at which the solid turns liquid. For the compound `O=C(O)CCCCNC(=O)c1ccc(Cl)cc1O` [Compound 1, 5-(2-Hydroxy-4-Chlorobenzoyl)Aminovaleric Acid], the melting point fell in the range of 140 to 141 °C. The “Mean peak serum insulin” value in data set [1] is reported as 36.25 ± 2.5 μU/ml.
